Measured values from patent US5444042A, “Method of treatment of neurodegeneration with calpain inhibitors” (Cortex Pharmaceuticals, priority 1994, dated 1995).
Blank lines part the entries; values can stand above or below the molecule they belong to. Where a SMILES comes first, the peptide text is derived from it. The star is where a group is joined. Boc = CC(C)(C)OC(=O)*; CH2Cl = ClC*

How the values were obtained:
Calpain I [1] = biological target: T1, Calpain I (Homo sapiens, UniProt P07384); assay: Calpain I KI (Table 1B(ii)); format: biochemical; conditions: Table 1B(ii)
T1 sequence (P07384 1-714): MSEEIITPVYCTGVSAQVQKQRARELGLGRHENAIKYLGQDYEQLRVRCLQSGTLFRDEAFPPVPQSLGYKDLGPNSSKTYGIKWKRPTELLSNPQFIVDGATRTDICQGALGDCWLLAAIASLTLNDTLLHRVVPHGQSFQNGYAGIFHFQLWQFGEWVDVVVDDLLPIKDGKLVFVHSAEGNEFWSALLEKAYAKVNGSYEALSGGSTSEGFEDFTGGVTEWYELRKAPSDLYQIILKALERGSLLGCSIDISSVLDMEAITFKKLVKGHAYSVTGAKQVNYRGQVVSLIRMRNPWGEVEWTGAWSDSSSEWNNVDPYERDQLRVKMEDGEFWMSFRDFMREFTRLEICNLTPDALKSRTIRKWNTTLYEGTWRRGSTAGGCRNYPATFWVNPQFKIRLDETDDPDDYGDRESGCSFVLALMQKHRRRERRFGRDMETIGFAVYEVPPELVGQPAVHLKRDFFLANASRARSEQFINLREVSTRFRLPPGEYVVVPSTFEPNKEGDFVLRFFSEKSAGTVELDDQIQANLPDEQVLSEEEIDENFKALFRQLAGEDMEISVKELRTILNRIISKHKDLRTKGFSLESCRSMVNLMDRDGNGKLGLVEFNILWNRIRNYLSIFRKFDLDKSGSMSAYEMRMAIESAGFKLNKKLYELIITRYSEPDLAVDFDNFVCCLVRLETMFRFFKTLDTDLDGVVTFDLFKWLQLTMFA
T1 sequence (P04632 1-268 partner): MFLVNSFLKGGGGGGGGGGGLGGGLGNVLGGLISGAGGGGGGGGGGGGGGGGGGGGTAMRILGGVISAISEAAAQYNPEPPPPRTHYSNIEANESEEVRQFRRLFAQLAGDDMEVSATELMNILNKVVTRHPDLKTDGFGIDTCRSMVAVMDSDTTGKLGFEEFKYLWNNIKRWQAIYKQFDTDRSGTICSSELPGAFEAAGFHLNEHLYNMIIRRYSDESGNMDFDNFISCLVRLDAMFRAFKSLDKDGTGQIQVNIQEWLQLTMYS
Description: We tested the ability of an additional group of Peptide Keto-Compounds to inhibit several proteases in order to evaluate their specificity for Calpain.

Calpain II = assay: Kapp/[I] progress curve method, Calpain II (Table 1C); format: biochemical; set-up: unit not given here; conditions: Rabbit Calpain II, Suc-leu-tyr-amidomethylcoumarin
Outline: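 Irreversible inactivation of calpains I and II followed with Suc-Leu-Tyr-AMC substrate; papain assayed with benzoyl-Arg-4-nitroanilide. Kapp derived by the Tian–Tsou progress-curve method from product formed at infinite time, known substrate and inhibitor concentrations, Vmax and Km; values reported as Kapp/[I].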

Papain = biological target: T2, Papain (Carica papaya, UniProt P00784); assay: Kapp/[I] progress curve method, Papain (Table 1C); format: biochemical; conditions: benzoyl-arg-4-nitroanilide
T2 sequence (P00784 134-345): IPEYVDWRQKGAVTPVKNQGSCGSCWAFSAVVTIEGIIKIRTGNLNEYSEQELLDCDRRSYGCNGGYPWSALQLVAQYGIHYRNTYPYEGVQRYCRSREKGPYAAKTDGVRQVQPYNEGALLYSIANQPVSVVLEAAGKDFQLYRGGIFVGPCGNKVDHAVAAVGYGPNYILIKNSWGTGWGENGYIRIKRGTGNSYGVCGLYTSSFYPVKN
Protocol: (§1) The Halo-Ketone Peptides, like the substituted isocoumarins, are irreversible inhibitors of Calpain. We determined the Kapp /[I] values for various members of this class of compounds against Calpains I and II. For comparison, we also determined these values against the additional thiol proteases Papain and Cathepsin B for at least one Halo-Ketone Peptide.
(§2) We assayed Calpain I and II using Suc-leu-tyr-amidomethylcoumarin. Papain was assayed using benzoyl-arg-4-nitroanilide, and Cathepsin B (bovine) was assayed using CBZ-lys-4-nitrophenyl ester. We followed the progress curve method of Tian and Tsou, Biochemistry, 21:1028-1032 (1982), the disclosure of which is hereby incorporated by reference, to derive kinetic data. Briefly, this method makes use of the equation: [formula] where [P.infin. ] represents the concentration of product formed at a time approaching infinity, A is the Kapp in the presence of substrate (S), K is the Michaelis constant and [Y] is the concentration of the inhibitor. Since [S] and [Y] are known and V and K can be determined, Kapp can be readily determined.

Cathepsin B = Cathepsin B (Bos taurus, UniProt P07688); assay: Kapp/[I] progress curve method, Cathepsin B (Table 1C); format: biochemical, bovine; conditions: CBZ-lys-4-nitrophenyl ester
Protocol: as §1, §2

Calpain I [2] = biological target: T1, Calpain I; assay: Calpain I 14C-methylated casein proteolysis (Table 1A); format: biochemical
[3] = tested on: gerbils subjected to transient ischemia; assay: Transient ischemia in gerbils, neuronal loss in CA1 (Example 3A); format: in vivo, gerbil; conditions: leupeptin 20 mg/ml intracerebroventricular perfusion 3 days before 10 min ischemia; 14 days later
Protocol: A small cannula was implanted in the right lateral ventricle of adult gerbils, and secured to the skull with dental cement. An Alzet micro-osmotic pump was attached to the cannula for intracerebroventricular perfusion. The pump was filled with either saline alone (control) or leupeptin (20 mg/ml in saline). After three days perfusion with either the control solution or with the leupeptin solution, transient ischemia was induced by bilaterally clamping the carotid arteries for a period of ten minutes. […] Fourteen days later, the animals were sacrificed by Nembutal overdose and transcardial perfusion of a 10% solution of paraformaldehyde in PBS. Coronal sections of the brain were stained with cresyl violet and were examined for the extent of neuronal loss.

[4] = tested on: Calpain activity (spectrin BDP's); assay: Transient ischemia in gerbils, spectrin BDP's in CA1 (Example 3B); format: in vivo, gerbil; conditions: CA1 region, 30 minutes after clamping
Protocol: Implantation surgeries and clamping of the carotid arteries were performed as above with a control-ischemia group (n=4) and a leupeptin-ischemia group (n=5). A third group of animals (n=4) received implantation with pumping of saline, but was not subjected to ischemia. Animals were sacrificed by decapitation 30 minutes after clamping of the arteries. The brains were rapidly removed and placed in cold homogenization buffer (0.32M sucrose, 10 mM Tris-HCl, 2 mM EDTA, 1 mM EGTA, 100 μM leupeptin and 1 μg/ml of the Halo-Ketone Compound, tos-phe-CH2 Cl (TPCK)). The CA1 region of the hippocampus was then dissected. The samples from both control and leupeptin treated animals were then prepared for SDS-PAGE and immunoblotting with labeled anti-spectrin antibody, as described above in connection with in vitro uses of the Calpain Inhibitors. […] These BDP's co-migrated with BDP's observed after in vitro proteolysis of spectrin with Calpain.

hippocampal slices = assay: Hippocampal slice EPSP recovery from severe hypoxia (FIG. 5); format: cell-based, rat; conditions: one hour incubation
Protocol: These studies were performed in a manner similar to that of Example 7B, except using a hypoxic environment in place of the anoxia of Example 7B. […] The control slices experienced little or no recovery.

SMILES: CCCC(NC(=O)[C@H](CC(C)C)NC(=O)OCc1ccccc1)C(=O)C(=O)OCC (mixture of isomers) [Z-Leu-Nva-COOEt, Z-Leu-DL-Nva-COOEt]
Ki (Calpain I [1]): 1.4 µM

SMILES: CC(C)CC(NC(=O)CNC(=O)OC(C)(C)C)C(=O)NC(Cc1ccccc1)C(=O)CCl (stereo not drawn) [Boc-Gly-Leu-Phe-CH2 Cl] (Boc-Gly-Leu-Phe-CH2Cl; configuration not given here)
Kapp/[I] CII (Calpain II): 902000
Kapp/[I] P (Papain): 540000
Kapp/[I] CB (Cathepsin B): 290000

IC50 (Calpain I [2]): 100 µM
SMILES: N=C(N)SCCCOc1oc(=O)c2ccccc2c1Cl [CiTprOIC, 4-chloro-3-(3-isothiureidopropoxy)isocoumarin]

SMILES: CC(=O)N[C@@H](CC(C)C)C(=O)N[C@@H](CC(C)C)C(=O)N[C@H](C=O)CCCNC(=N)N [Leupeptin, Ac-Leu-Leu-Arg-H, reference compound]
loss of neurons in CA1 field [3]: 15%
spectrin BDP's relative to control ischemia treated gerbils [4]: approximately 25%

SMILES: N=C(N)SCCCOc1oc(=O)c2cc(N)ccc2c1Cl [NH2 -CiTPrOIC (ACITIC), 7-amino-4-chloro-3-(3-isothiureidopropoxy)isocoumarin]
IC50 (Calpain I [2]): 10 µM

SMILES: CCOC(=O)C(=O)C(Cc1ccccc1)NC(=O)C(CC(C)C)NC(=O)OCc1ccccc1 (stereo not drawn) [Z-Leu-Phe-COOEt]
percent recovery of EPSP from severe hypoxia (FIG. 5) (hippocampal slices): partial recovery
